Experimental data: patent US5827837A, “Polyanion anti-inflammatory agents” (priority 1996, dated 1998)

What was measured:
neutrophils = details: cited from earlier work
E-selectin (E-COS) = experiment: LS 180 cell adhesion to COS cells transfected with full length E-selectin (E-COS); type: cell-based; details: 0.5 mM
Procedure: (§1) The effect of inositols on selectin-dependent cell adhesion was assessed using several in vitro assay systems. In the first, a colon cancer cell line, LS 180, was chosen because it binds to all three selecting.
(§2) COS-1 cells were transfected as described (Seed, B., et al., Proc. Natl. Acad. Sci., U.S.A., 84:3365, 1987; Aruffo, A., Current Protocols In Molecular Biology, eds. supra, 1992) with pCDM7/pCDM8 expression vectors containing the full-length E-, P- and L-selectin cDNA. Transfected COS-1 cells were seeded on gelatin coated coverslips.

L-selectin (L-COS) = experiment: LS 180 cell adhesion to COS cells transfected with full length L-selectin (L-COS); type: cell-based; details: 0.5 mM, 2 experiments
Procedure: as §1, §2

[1] = Ca^2+; read-out: Kd, calcium binding; cited from earlier work
[2] = system: Human umbilical vein endothelial cells (HUVEC); experiment: PMN adhesion to TNF-activated endothelial monolayers (HUVEC); type: cell-based; details: InsP6 0.5 mM
Procedure: Human umbilical vein endothelial cells (HUVEC, Clonetics Corp., San Diego, Calif.) were grown to confluence with 2.2 cm diameter circles made on glass slides with a grease pencil as previously described (Spertini, O., et al., J. Immunol., 147:2565, 1991), and activated for 6-8 hours at […] with 200 U/ml of human recombinant TNFα (Biogen Res. Corp., Cambridge, Mass.). Human PMN (2×10^6) were allowed to adhere to these endothelial monolayers for 30 min at 4° C. under static (stationary platform; upper panel) and non-static (rotating platform, 64 r.p.m.; lower panel) conditions. To determine adhesion blocking activity, PMN were incubated in 5% FBS in RPMI 1640 alone or containing inositol (0.5 mM), InsP6 (0.5 mM), or anti-L-selectin monoclonal antibody LAM 1.3 (10 μg/ml), for 30 min or ice prior to their addition to activated endothelial monolayers. In some experimental wells, endothelial monolayers were incubated with anti E-selectin monoclonal antibody, H18/7, for 30 min prior to addition of PMN. After washing to remove unbound PMN, cultures were fixed in PBS containing 2.5% glutaraldehyde and adherent PMN were counted microscopically. The data represent the mean ±s.e.m. of three separate experiments. Unblocked PMN adhesion to activated endothelial monolayers under static and non-static conditions ranged from 1800 to 2400 cells/mm^2. […]

[3] = system: PMN recovered in broncho-alveolar lavage fluid; experiment: Lung inflammation by intratracheal instillation of endotoxin, PMN in broncho-alveolar lavage fluid; type: in vivo; details: rat, i.v. at 2 and 4 hours, 40 μmol/kg total, at 6 hours, 2 experiments
Excerpt: In the first model, mice were given intraperitoneal (i.p.) injections of 3% thioglycollate broth (FIG. 4, left panel) which results in an accumulation of PMN, the early phase of which is thought to depend in large part on L-(Lewinsohn, D. M., et al., J. Immunol., 138:4313, 1987; Watson, S. R., et al., Nature, 349:164, 1991), and P-selectin (Mulligan, M. S., et al., J. Clin. Invest., 90:1600, 1992). […] In a rat model of lung inflammation involving intratracheal instillation of endotoxin (Ulich, T. R., et al., Am. J. Pathol, 138:1485, 1991), InsP6 (i.v. injections at 2 and 4 hours, 40 μmol/kg total) reduced the number of PMN recovered in broncho-alveolar lavage fluid at 6 hours (59±8% inhibition, 2 experiments). The number of peripheral blood PMN was not modified by InsP6 treatment.

P-selectin (P-COS) = experiment: LS 180 cell adhesion to COS cells transfected with full length P-selectin (P-COS); type: cell-based; details: 0.5 mM, 2 experiments
Procedure: as §1, §2

[4] = mice and rats, high-dose (^18 600 μmol/kg), rate 60 μmol/kg/min or higher; cited from earlier work
[5] = molecular target: T1, E-selectin-lg fusion protein (Homo sapiens, UniProt P16581); experiment: LS 180 colon cancer cell adhesion to immobilized E-selectin-Ig; type: cell-based
T1 construct: Each selectin-lg contains the lectin domain, epidermal growth factor domain, and one (L-selectin-lg), two (P-selectin-lg) or six (E-selectin-lg) complement regulatory repeats; made in house
Procedure: Cell adhesion assays on immobilized selectin-lg were performed essentially as described (Nelson, R. M., et al., J. Clin. Invest., 91:1157, 1993; Nelson, R. M., et al., Symposia on Quant. Biol., 57:271, 1992). Briefly, Nunclon Terasaki Microwell plates were coated overnight with 5 μl/well of a 5 μg/ml solution of protein A (Chemicon, Temecula, Calif.) in 50 mM carbonate buffer, pH 9.5. Protein-A-coated plates were washed with Dulbecco's phosphate buffered saline (PBS), incubated for 1 hour with L-, P-, or E-selectin-lg fusion proteins in PBS (5-20 μg/ml), washed again, and blocked with PBS containing 1% human serum albumin (HSA). […] After washing to remove unbound cells, adherent cells were fixed with glutaraldehyde (2.5% in PBS) and counted. Symbols and error bars represent mean number of adherent cells/mm^2 ±s.e.m., counted in quadruplicate wells in a single experiment representative of three. No LS 180 cell adhesion was detected on plates coated with protein A alone, or on plates coated with protein A-captured CD8-lg fusion protein.
LS 180 cells (ATCC, Rockville, Md.) were added to cell culture wells containing protein A-captured selectin-lg fusion proteins and incubated for 30 min at 4° C. to allow adhesion. The plates were washed to remove unbound cells and adherent cells were counted microscopically. […]

hemoglobin = details: in vitro; cited from earlier work

T1 sequence (P16581 with tags, fused parts or gaps limits assumed): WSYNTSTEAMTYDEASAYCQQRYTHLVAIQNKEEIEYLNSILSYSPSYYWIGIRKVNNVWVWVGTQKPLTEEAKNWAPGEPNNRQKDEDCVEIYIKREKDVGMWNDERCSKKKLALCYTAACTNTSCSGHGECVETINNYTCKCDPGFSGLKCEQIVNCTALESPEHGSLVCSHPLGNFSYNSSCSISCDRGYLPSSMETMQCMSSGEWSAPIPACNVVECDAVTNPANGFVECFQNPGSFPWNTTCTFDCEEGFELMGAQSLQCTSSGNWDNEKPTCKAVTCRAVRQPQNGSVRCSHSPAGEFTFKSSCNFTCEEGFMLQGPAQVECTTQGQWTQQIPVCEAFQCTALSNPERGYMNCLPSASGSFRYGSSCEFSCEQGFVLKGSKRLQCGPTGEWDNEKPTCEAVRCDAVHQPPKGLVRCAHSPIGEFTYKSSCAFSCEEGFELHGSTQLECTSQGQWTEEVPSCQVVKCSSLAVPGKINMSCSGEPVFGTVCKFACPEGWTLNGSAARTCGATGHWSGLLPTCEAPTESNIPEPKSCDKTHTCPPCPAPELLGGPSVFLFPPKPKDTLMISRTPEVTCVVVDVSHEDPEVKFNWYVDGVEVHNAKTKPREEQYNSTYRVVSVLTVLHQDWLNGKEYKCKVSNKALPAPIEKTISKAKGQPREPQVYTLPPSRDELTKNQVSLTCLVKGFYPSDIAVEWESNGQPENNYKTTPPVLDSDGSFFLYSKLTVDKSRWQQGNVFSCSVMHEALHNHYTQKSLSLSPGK

O=P(O)(O)O[C@H]1[C@H](OP(=O)(O)O)[C@@H](OP(=O)(O)O)[C@H](OP(=O)(O)O)[C@@H](OP(=O)(O)O)[C@H]1OP(=O)(O)O [InsP6, myo-inositol hexakisphosphate]
effect on neutrophil responses to activating stimuli (neutrophils): enhance their responses to activating stimuli
inhibition of LS 180 cell adhesion to E-COS (E-selectin (E-COS)): < 5%
inhibition of LS 180 cell adhesion to L-COS (L-selectin (L-COS)): 81±13%
Kd [1]: ~5 µM
PMN adhesion to TNF-activated endothelial cells, non-static ([2]; non-static conditions (rotation-induced shear stress, 64 r.p.m.)): blocked the adhesion of PMN
PMN adhesion to TNF-activated endothelial cells, static ([2]; static conditions): little or no effect
inhibition of PMN recovered in broncho-alveolar lavage fluid [3]: 59±8%
inhibition of LS 180 cell adhesion to P-COS (P-selectin (P-COS)): 95±5%
acute toxic effects, i.v. infusion [4]: acute toxic effects
LS 180 adhesion to E-selectin-Ig [5]: but not with E-selectin-lg
allosteric regulation of mammalian hemoglobin (hemoglobin): effective allosteric regulator of mammalian hemoglobin in vitro
